Measurements reported in the supplement of paper PMC10307832.

Compound: COc1cc(-c2nn([C@H]3CC[C@H](N4CCN(C(C)=O)CC4)CC3)c3ncnc(N)c23)ccc1NC(=O)c1cc2ccccc2n1C + CC(=O)Nc1cccc(-n2c(=O)n(C3CC3)c(=O)c3c(Nc4ccc(I)cc4F)n(C)c(=O)c(C)c32)c1 [Trametinib] (partner 0.02 µM)
Experiment: relative viability (nuclei count vs DMSO), 5 days (fraction); higher = more cells survive
Conditions: first compound 1.28 µM
Summary of the method: (§1)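 Lung cancer cell lines in 1536-well plates got either a single drug or a fixed anchor-drug dose together with five library-drug doses (not always all listed) in √10 steps, by pin tool, on the day after seeding. Nuclei were counted after 5 days, and relative viability is the treated-to-vehicle ratio of nuclei counts. Values are medians of duplicate plates.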

Cell Line | relative viability
NCI-H838 | 0.403
NCI-H520 | 0.361
NCI-H2126 | 0.448
EMC-BAC-2 | 1.02
NCI-H2085 | 0.334
HCC-366 | 0.179
NCI-H1666 | 0.918
NCI-H596 | 0.554
LK-2 | 0.47
NCI-H2087 | 0.17
SK-MES-1 | 0.279
H3255 | 0.499
COR-L23 | 0.592
COR-L 105 | 0.298
LOU-NH91 | 0.728
NCI-H2170 | 0.876
NCI-H2405 | 0.347
HOP-62 | 0.296
HCC-44 | 1.03
LU99A | 0.489
BEN | 0.838
HARA | 0.418
HCC-78 | 0.453
NCI-H322M | 0.463
LCLC-97TM1 | 0.133
NCI-H2009 | 0.195
A-427 | 0.711
NCI-H661 | 0.506
NCI-H1734 | 0.598

Compound: COc1cc(-c2nn([C@H]3CC[C@H](N4CCN(C(C)=O)CC4)CC3)c3ncnc(N)c23)ccc1NC(=O)c1cc2ccccc2n1C + CS(=O)(=O)CCNCc1ccc(-c2ccc3ncnc(Nc4ccc(OCc5cccc(F)c5)c(Cl)c4)c3c2)o1 [Lapatinib] (partner 2 µM)
Experiment: as above
Conditions: first compound 0.0128 µM
Summary of the method: as §1

Cell Line | relative viability
SW 1573 | 0.981
NCI-H838 | 1.06
NCI-H520 | 0.818
NCI-H2126 | 0.801
EMC-BAC-2 | 0.909
NCI-H2085 | 0.77
HCC-366 | 1.09
NCI-H1666 | 0.712
NCI-H596 | 0.933
LK-2 | 1.09
NCI-H2087 | 1.05
SK-MES-1 | 0.397
H3255 | 0.294
COR-L23 | 0.933
COR-L 105 | 0.3
LOU-NH91 | 0.756
NCI-H2170 | 0.253
NCI-H2405 | 1.13
HOP-62 | 1.09
HCC-44 | 1.08
LU99A | 1.11
BEN | 0.588
HARA | 0.888
HCC-78 | 0.953
NCI-H322M | 0.627
LCLC-97TM1 | 0.922
NCI-H2009 | 1.26
A-427 | 1.18
NCI-H661 | 0.545
NCI-H1734 | 1.12

Same assay, conditions: first compound 0.04048 µM

Cell Line | relative viability
SW 1573 | 1
NCI-H838 | 1.02
NCI-H520 | 0.745
NCI-H2126 | 0.859
EMC-BAC-2 | 0.935
NCI-H2085 | 0.822
HCC-366 | 0.998
NCI-H1666 | 0.664
NCI-H596 | 1.2
LK-2 | 0.981
NCI-H2087 | 0.659
SK-MES-1 | 0.561
H3255 | 0.27
COR-L23 | 1.2
COR-L 105 | 0.327
LOU-NH91 | 0.689
NCI-H2170 | 0.283
NCI-H2405 | 0.554
HOP-62 | 0.891
HCC-44 | 1.21
LU99A | 1.1
BEN | 0.646
HARA | 0.858
HCC-78 | 0.85
NCI-H322M | 0.679
LCLC-97TM1 | 0.553
NCI-H2009 | 0.438
A-427 | 0.944
NCI-H661 | 0.532
NCI-H1734 | 1.04

Same assay, conditions: first compound 0.128 µM

Cell Line | relative viability
SW 1573 | 0.914
NCI-H838 | 0.913
NCI-H520 | 0.685
NCI-H2126 | 0.718
EMC-BAC-2 | 0.842
NCI-H2085 | 0.805
HCC-366 | 1.07
NCI-H1666 | 0.581
NCI-H596 | 0.933
LK-2 | 0.83
NCI-H2087 | 0.93
SK-MES-1 | 0.443
H3255 | 0.238
COR-L23 | 0.789
COR-L 105 | 0.352
LOU-NH91 | 0.747
NCI-H2170 | 0.243
NCI-H2405 | 0.955
HOP-62 | 0.865
HCC-44 | 0.937
LU99A | 1.12
BEN | 0.878
HARA | 0.563
HCC-78 | 0.673
NCI-H322M | 0.621
LCLC-97TM1 | 0.9
NCI-H2009 | 0.961
A-427 | 0.852
NCI-H661 | 0.469
NCI-H1734 | 0.959

Same assay, conditions: first compound 1.28 µM

Cell Line | relative viability
SW 1573 | 0.808
NCI-H838 | 0.629
NCI-H520 | 0.646
NCI-H2126 | 0.68
EMC-BAC-2 | 0.801
NCI-H2085 | 0.564
HCC-366 | 0.66
NCI-H1666 | 0.509
NCI-H596 | 0.842
LK-2 | 0.777
NCI-H2087 | 1.17
SK-MES-1 | 0.451
H3255 | 0.176
COR-L23 | 0.992
COR-L 105 | 0.31
LOU-NH91 | 0.679
NCI-H2170 | 0.249
NCI-H2405 | 0.446
HOP-62 | 1.03
HCC-44 | 1.23
LU99A | 0.904
BEN | 0.401
HARA | 0.813
HCC-78 | 0.585
NCI-H322M | 0.474
LCLC-97TM1 | 1.08
NCI-H2009 | 0.888
A-427 | 0.907
NCI-H661 | 0.319
NCI-H1734 | 0.871
